Measurements published in paper PMC9445589, “Apolipoprotein E mimetic peptide COG1410 combats pandrug-resistant Acinetobacter baumannii” (Frontiers in Microbiology, 2022).
Converted amounts (≈) assume the structure as drawn. “Also recorded” adds a separate entry of the source. Non-standard residues stand in square brackets, D forms with d. Residues, ends and D or L forms follow the SMILES beside them. Aib = CC(C)(N)C(=O)O

Assays:
[1] = test system: Acinetobacter baumannii ATCC19606
[2] = cytotoxicity assay, Cell Counting Kit 8; conditions: human, L02 cells (human hepatic, normal liver cell)
Experimental: Briefly, 100 μl of human hepatic L02 cells was seeded in the 96-well plate with 4 × 10^3 per well in RPMI-1640 medium containing 20% FBS and incubated at 37°C in a 5% CO2 atmosphere for 24 h. The cells without exposure to peptides were used as a negative control. Then, the L02 cells were incubated with different concentrations of COG1410 for another 24 h. Then, 10 μl of CCK8 solution was added to each well. After 2 h of incubation, the optical absorbance at 450 nm was measured with a BioTek synergy H1 plate reader. […] The experiments were done in triplicate.

[3] = test system: Porphyromonas gingivalis ATCC33277
[4] = test system: MDR Enterobacter cloacae 7–86; conditions: microdilution method in the corresponding broth
[5] = test system: MDR Streptococcus pneumoniae 10–58; conditions: microdilution method in the corresponding broth
[6] = test system: A. baumannii YQ4 preformed biofilm; experiment: biofilm eradication assay, crystal violet; assay type: cell-based, Acinetobacter baumannii; conditions: 48 h preformed biofilm, 24 h treatment
Experimental: Biofilm eradication assay was performed as described previously (Mwangi et al., [2019]). A. baumannii YQ4 culture of log phase was diluted in fresh LB broth to OD600 0.01 and dispensed to a 96-well PVC plate with 200 μl per well. Plates were incubated at 37°C for 48 h and washed with PBS three times. Serial dilutions of COG1410 (0.5–128 μg/ml) were prepared using the same media, and 200 μl were dispensed into each well. Each concentration was determined in eight wells. LB without COG1410 was used as untreated control. After incubation for another 24 h, the remaining biofilm was quantified as described above. The experiments were performed in triplicate.

[7] = test system: Caenorhabditis elegans (Bristol N2) infected with A. baumannii YQ4; experiment: nematode killing assay, C. elegans infection model; conditions: 16 μg/ml COG1410 in NGM plate, versus untreated group
[8] = test system: EBSL-producing Klebsiella pneumoniae YQ7; conditions: microdilution method in the corresponding broth
[9] = test system: A. baumannii YQ4 intracellular ROS; experiment: ROS detection, DCFH-DA probe; assay type: cell-based, Acinetobacter baumannii; conditions: 16 μg/ml
Experimental: The intracellular ROS level was determined by the Reactive Oxygen Species Assay Kit of Beyotime Biotechnology (S0033S), according to the manufacturer's instructions. The log-phase culture of A. baumannii YQ4 was harvested and washed in PBS, and then diluted 10 times, approximately 10^7 CFU/ml. In total, 1 μl of DCFH-DA (10 μM) was added to 1 ml of cell culture and incubated at 37°C for 20 min. Then the fluorescence probe was fully removed by washing with PBS three times and resuspending in PBS, followed by the addition of COG1410 (16 μg/ml) or water. Rosup (50 μg/ml) was positive control in the kit. The culture was incubated at 37°C for 30 min. The fluorescence intensity was measured by a plate reader at an excitation wavelength of 488 nm and an emission wavelength of 525 nm. The experiment was performed in duplicate.

[10] = test system: PDR Klebsiella pneumoniae 84; conditions: microdilution method in the corresponding broth
[11] = test system: MDR Klebsiella oxytoca 7–85; conditions: microdilution method in the corresponding broth
[12] = test system: A. baumannii ATCC19606 and two LPS-modified strains, pmrA^P102R and pmrA^P102RmiaA^I221V; experiment: MIC against LPS-modified strains; assay type: cell-based, Acinetobacter baumannii; conditions: MIC in LB broth, wild type versus mutants
Experimental: The growth curve was measured in duplicate, with eight wells for each treatment in a 96-well plate each time. […] Experiments were conducted in triplicate. Data indicated mean ± SD values.

[13] = test system: vancomycin-resistant Enterococcus faecalis 11–34; conditions: vancomycin-resistant 11–34
[14] = test system: panel of Gram-positive and Gram-negative strains; experiment: MIC on a panel of strains; assay type: cell-based; conditions: Streptococcus pneumoniae, methicillin-sensitive S. aureus, MRSA, Klebsiella pneumoniae, Pseudomonas aeruginosa
Experimental: Strain stocks were maintained at −80°C in 10% glycerol. Bacteria were streaked on fresh plates before each experiment. Most of them were cultured in LB broth containing 10 g/L NaCl at 37°C, except for Mycobacteria in 7H9 broth and Enterococcus in BHI broth. Porphyromonas gingivalis was cultured in BHI broth supplemented with 1 μg/ml vitamin k1, 5 μg/ml hemin, and 5 mg/ml L-cysteine hydrochloride at 37°C in the anaerobic chamber. The minimal inhibitory concentrations (MICs) of antimicrobials were determined using the microdilution method in the corresponding broth.
The antimicrobial activity of COG1410 was determined by measuring the minimal inhibition concentration (MIC) values on a panel of Gram-positive and Gram-negative strains (Table 1).

[15] = stability in human plasma, disk diffusion read-out; conditions: 100% human plasma, 10 mg/ml, 37°C, first 2 h; disk diffusion on A. baumannii YQ4, three independent experiments
Experimental: In order to determine the stability in human plasma, COG1410 was dissolved in1 ml of 100 % human plasma with the final concentration of 10 mg/ml and incubated at 37°C without shaking. Aliquots of 100 μl were taken at 0, 1, 2, 4, 6, 8, and 10 h. The log-phase culture of A. baumannii YQ4 was prepared as described above. About 200 μl of culture was mixed with 6 ml of 0.8% soft agar to make a two-layered plate. After air drying for 30 min, four 6-mm paper disks were placed on the top, and 6-μl aliquots of COG1410 at different time points were dropped on the paper disks. After 18 h of incubation at 37°C, the inhibition zones were recorded by a digital camera, and the inhibition diameters were measured by image J. Three independent experiments were performed.
About 10 mg/ml of COG1410 was incubated with 100% human plasma at 37°C and sampled at different time points. The stability of COG1410 was determined by evaluating the antibacterial activity against PDR A. baumannii YQ4 through the disk diffusion assay. The diameters of inhibition were measured. Three independent experiments were performed and data were represented as mean ± SD. The statistical significance between initial and different points was analyzed by Student's t-test. ^* indicated p < 0.05; ^*** indicated p < 0.001. Click here for additional data file.

[16] = test system: human red blood cell (RBC); conditions: 1 h
Experimental: The anti-coagulated (citrate) whole blood sample was pelleted by centrifugation at 700 g for 8 min, washed three times with PBS, and suspended in 0.5% (vol/vol) PBS. […] The highest concentration was 512 μg/ml (363 μM). PBS and Triton X-100 (0.1%) were used as negative and positive controls, respectively. The plate was incubated at 37°C for 1 h, followed by centrifugation at 1,000 rpm for 5 min at 4°C. Aliquots of 60 μl of the supernatant from each well were quickly transferred to a new flat-bottom 96-well plate. The optical absorbance at OD414 was measured with a microplate reader (BioTek, synergy H1). The hemolysis percentage was then normalized with respect to the averaged negative (0%) and positive (100%) controls. Three independent experiments were conducted.

A. baumannii YQ4 [17] = experiment: antibacterial activity (LC99.9) in PBS or 50% pooled human plasma; assay type: cell-based, Acinetobacter baumannii; conditions: 2 h, 37°C
Experimental: The antibacterial activity of COG1410 in plasma was performed as described previously (De Breij et al., [2018]). Briefly, the log-phase culture of A. baumannii YQ4 was exposed to different concentrations of COG1410 in PBS or PBS supplemented with 50% (v/v) pooled human plasma. After incubation with shaking at 200 rpm at 37°C for 2 h, the CFU was counted on LB agar. LC99.9 indicates the lowest peptide concentration that kills ≥99.9% of bacteria. The experiments were conducted independently in triplicate.

A. baumannii YQ4 [18] = experiment: ATP leak assay; assay type: cell-based, Acinetobacter baumannii; conditions: 16 μg/ml COG1410, 16 μg/ml polymyxin B or 32 μg/ml tigecycline (1× MIC), PBS, 37°C, 30 min
Experimental: ATP leak assay was performed using the Enhanced ATP Assay Kit of Beyotime ([…]) according to the manufacturer's manual. […] The supernatant was harvested and used for the measurement of ATP levels. In total, 100 μl of supernatant was mixed with 100 μl of working solution, and the chemiluminescence was measured by using a Biotek Synergy H1 plate reader. The untreated sample was set as a negative control. The experiments were performed in triplicate.

A. baumannii YQ4 [19] = experiment: scanning electron microscopy (SEM) of treated cells; assay type: cell-based, Acinetobacter baumannii; conditions: 1× MIC (16 μg/ml), PBS, 37°C, 30 min
Experimental: The log-phase culture of A. baumannii YQ4 was prepared as described above, harvested, and washed once with PBS. The pellets were suspended in PBS supplemented with 1 × COG1410 (16 μg/ml) or 1 × polymyxin B (16 μg/ml) and incubated at 37°C for 30 min. The untreated culture was used as a positive control to observe the morphology of the intact cell. […] After washing three times with PBS, the cells were post-fixed in 1% osmium at 4 °C for 1 h. After washing in distilled water for 1 h, the bacteria were dehydrated in the ascending concentrations of ethanol. Finally, these samples were transferred to ThermoFisher Quattro SEM for image collection after tert-butanol freeze-drying and sputter coating.

[20] = test system: methicillin-resistant Staphylococcus aureus 14–55; conditions: microdilution method in the corresponding broth
[21] = test system: Mycobacterium tuberculosis H37Rv; conditions: microdilution method, 7H9 broth
A. baumannii YQ4 [22] = experiment: dynamic time-kill assay in PBS

SMILES: CC(=O)N[C@@H](C)C(=O)N[C@@H](CO)C(=O)NC(C)(C)C(=O)N[C@@H](CC(C)C)C(=O)N[C@@H](CCCNC(=N)N)C(=O)N[C@@H](CCCCN)C(=O)N[C@@H](CC(C)C)C(=O)NC(C)(C)C(=O)N[C@@H](CCCCN)C(=O)N[C@@H](CCCNC(=N)N)C(=O)N[C@@H](CC(C)C)C(=O)N[C@@H](CC(C)C)C(N)=O [COG1410, acetyl-AS-Aib-LRKL-Aib-KRLL-amide] (Ac-AS[Aib]LRKL[Aib]KRLL-NH2)
- MIC [1]: 16 µg/mL (≈ 11.4 µM)
- EC50 at 24 h [2]: 58.9 µg/mL (≈ 41.8 µM)
- MIC [3]: 32 µg/mL (≈ 22.7 µM)
- MIC [4]: 64 µg/mL (≈ 45.4 µM)
- MIC [5]: >256 µg/mL
- mature biofilm dispersed ([6]; 1× MIC): approximately 46%
- biofilm eradicated ([6]; 4 × MIC): more than 88%
- survival of infected nematodes [7]: alleviated the death of infected nematodes but not statistically significantly
- MIC [8]: >256 µg/mL
- ROS production, in words ([9]; 37°C, Figure 3D): significantly lead to more ROS production
- more ROS detected by DCFH-DA probe ([9]; treatment for 20 min as printed): 30%
- MIC [10]: >256 µg/mL
- MIC [11]: >256 µg/mL
- effect of lipid A modification of LPS on antimicrobial efficacy [12]: did not change the antimicrobial efficacy
- MIC [13]: 32 µg/mL (≈ 22.7 µM)
- antimicrobial activity in words [14]: inactive
- change of inhibition diameter / degradation [15]: did not significantly change; also recorded: does not seem to be significantly degraded
- EC50, lysis of half of the red blood cells [16]: 441 µg/mL
- hemolysis ([16]; red cells of human, 128 μg/ml): < 5%
- LC99.9 (A. baumannii YQ4 [17]; PBS with 50% (v/v) pooled human plasma): 8 µg/mL
- LC99.9 (A. baumannii YQ4 [17]; PBS, lowest concentration that kills ≥99.9% of bacteria): 2 µg/mL
- ATP leak (extracellular ATP) (A. baumannii YQ4 [18]): significantly more than untreated control and tigecycline treatment group
- cell morphology by SEM (A. baumannii YQ4 [19]): intact, with little debris observed
- MIC [20]: >256 µg/mL
- MIC (Bacillus subtilis 168): 1 µg/mL (≈ 0.71 µM)
- MIC [21]: 16 µg/mL (≈ 11.4 µM)
- elimination of the inoculum (A. baumannii YQ4 [22]; 5 × MIC (80 μg/ml), within 5 min, PBS, inoculum 1 × 10^8 CFU/ml): completely eliminated
- time to eliminate large inocula (A. baumannii YQ4 [22]; inocula 10^8 CFU/ml): ≤ 30 min
